According to PMC9455983 (International Journal of Molecular Sciences, 2022):
Read-outs that look alike come from different tables or passages of the source.

Legend:
[1] = target: T1, delta-opioid receptor (DOR) (Rattus norvegicus, UniProt P33533); test: DOR radioligand competition binding assay ([3H]-DPDPE); details: Delta screening results
T1 construct: Rat cortices were homogenized using 50 mM Tris, pH 7.4, 10 mM MgCl2-6H2O, 200 µM PMSF; from tissue; host or cells: rat cortex membranes
Method: DOR binding assay: Rat cortices were homogenized using 50 mM Tris, pH 7.4, 10 mM MgCl2-6H2O, 200 µM PMSF, centrifuged and incubated as above. Each assay tube contained 2 nM [^3H]-DPDPE. Assay tubes were incubated for 2.5 h at 25 °C. Unlabeled DPDPE was used as a competitor to generate a standard curve and determine nonspecific binding.
(§1) All three binding assays were terminated by filtration through GF/B filters, soaked in 5 mg/mL bovine serum albumin, 50 mM Tris, pH 7.4, on a Tomtec Mach II Harvester 96. The filters were subsequently washed with 6 mL of assay buffer. Bound radioactivity was counted on a Wallac Betaplate Liquid Scintillation Counter. Experiments were conducted using two replicates and repeated twice. Values in Scheme 2 represent the mean ± SD of two experiments with two replicates in each test.

[2] = target: T2, mu-opioid receptor (MOR) (Rattus norvegicus, UniProt P33535); test: MOR radioligand competition binding assay ([3H]-DAMGO); details: Mu screening results
T2 construct: Rat cortices were homogenized using 50 mM Tris, pH 7.4, and centrifuged at 16,500 rpm for 10 min; from tissue; host or cells: rat cortex membranes
Method: MOR binding assay: Rat cortices were homogenized using 50 mM Tris, pH 7.4, and centrifuged at 16,500 rpm for 10 min. The pellets were resuspended in fresh buffer and incubated at 37 °C for 30 min. Following incubation, the suspensions were centrifuged as before, the resulting pellets were resuspended in 100 volumes of 50 mM Tris, pH 7.4 plus 2 mg/mL bovine serum and the suspensions combined. Each assay tube contained 0.5 mL of membrane suspension, 2 nM [^3H]-DAMGO, and 0.02 mg/mL mixture in a total volume of 0.65 mL [13, 45, 53, 55].
as §1

[3] = target: T3, kappa-opioid receptor (KOR) (Cavia porcellus, UniProt P41144); test: KOR radioligand competition binding assay ([3H]U69,593); parameters: species or system guinea pig; details: Kappa screening results
T3 construct: Guinea pig cortices and cerebella were homogenized using 50 mM Tris, pH 7.4; from tissue; host or cells: guinea pig cortex and cerebellum membranes
Method: KOR binding assay: Guinea pig cortices and cerebella were homogenized using 50 mM Tris, pH 7.4, 10 mM MgCl2-6H2O, […] centrifuged and incubated as above. Each assay tube contained 2 nM [^3H]U69,593. Assay tubes were incubated for 2 h at 25 °C. Unlabeled U50,488 was used as a competitor to generate a standard curve and determine nonspecific binding.
as §1

[4] = first Ki column, unit not printed (apparently M), read-out: Ki (first column)
[5] = mean of both Ki, unit inferred, read-out: MEAN (Ki)
[6] = mean of two experiments, read-out: Ki
[7] = second Ki column, unit not printed (apparently M), read-out: Ki (second column)
[8] = experiment 1, unit inferred, read-out: Ki (Exp 1)
[9] = experiment 2, unit inferred, read-out: Ki (Exp 2)
[10] = mean of Exp 1 and Exp 2, unit inferred, read-out: MEAN (Ki)

Compound	Ki [1, 4] [nM]	Ki [1, 5] [nM]	Ki [1, 6] [nM]	Ki [1, 7] [nM]	Ki [2, 8] [nM]	Ki [2, 9] [nM]	Ki [2, 10] [nM]	Ki [2, 6] [nM]	Ki [3, 8] [nM]	Ki [3, 9] [nM]	Ki [3, 10] [nM]	Ki [3, 6] [nM]
Cc1cc(O)cc(C)c1C[C@H]1CN([C@@H](Cc2ccccc2)CN2C(=N)NC[C@@H]2Cc2ccc(O)cc2)C(=N)N1 [1968-20]	877	853	853	829	74.7	80.3	77.5	77	977	659	818	818
N=C1NC[C@H](Cc2ccc(O)cc2)N1C[C@H](Cc1ccc(O)cc1)N1C[C@H](Cc2ccccc2)NC1=N [1968-21]	7830	7730	7730	7630	175	199	187	187	3590	3290	3440	3440
CC(C)C[C@@H](CN1C(=N)NC[C@@H]1Cc1ccc(O)cc1)N1C[C@H](Cc2ccccc2)NC1=N [1968-25]	25400	30500	30500	35700	707	725	716	716	6550	3320	4930	4930
CC(C)C[C@@H](CN1C(=N)NC[C@@H]1Cc1ccc(O)cc1)N1C[C@H](Cc2ccc(O)cc2)NC1=N [1968-26]	7480	8070	8070	8670	781	751	766	766	15800	13200	14500	14500
Cc1cc(O)cc(C)c1C[C@H]1CN([C@@H](CC(C)C)CN2C(=N)NC[C@@H]2Cc2ccc(O)cc2)C(=N)N1 [1968-28]	4800	5070	5070	5340	118	119	118	118	840	1400	1120	1120
Cc1cc(O)cc(C)c1C[C@@H](CN1C(=N)NC[C@@H]1Cc1ccc(O)cc1)N1C[C@H](Cc2ccccc2)NC1=N [1968-29]	967	836	836	705	117	114	116	116	1450	1450	1450	1450
Cc1cc(O)cc(C)c1C[C@@H](CN1C(=N)NC[C@@H]1Cc1ccc(O)cc1)N1C[C@H](Cc2ccc(O)cc2)NC1=N [1968-30]	1340	1200	1200	1070	98.8	127	113	113	1730	1760	1740	1740
Cc1cc(O)cc(C)c1C[C@@H](CN1C(=N)NC[C@@H]1Cc1ccc(O)cc1)N1C[C@H](CC(C)C)NC1=N [1968-31]	2200	1940	1940	1680	295	298	297	297	2580	2080	2330	2330
Cc1cc(O)cc(C)c1C[C@H]1CN([C@@H](Cc2c(C)cc(O)cc2C)CN2C(=N)NC[C@@H]2Cc2ccc(O)cc2)C(=N)N1 [1968-32]	469	488	488	507	106	134	120	120	1760	1480	1620	1620
C[C@H]1CNC(=N)N1C[C@H](Cc1ccccc1)N1C[C@H](Cc2ccccc2)NC1=N [1968-33]	16600	11300	11300	5950	4170	2540	3350	3360	16300	14100	15200	15200
C[C@H]1CNC(=N)N1C[C@H](Cc1ccccc1)N1C[C@H](Cc2ccc(O)cc2)NC1=N [1968-34]	5140	6650	6650	8160	1480	1070	1280	1280	6520	9150	7830	7830
Cc1cc(O)cc(C)c1C[C@H]1CN([C@@H](Cc2ccccc2)CN2C(=N)NC[C@@H]2C)C(=N)N1 [1968-36]	3710	3550	3550	3400	167	124	146	146	1030	1320	1170	1170
C[C@H]1CNC(=N)N1C[C@H](Cc1ccc(O)cc1)N1C[C@H](Cc2ccccc2)NC1=N [1968-37]	3430	3610	3610	3800	749	588	669	669	3450	3880	3660	3660
C[C@H]1CNC(=N)N1C[C@H](Cc1ccc(O)cc1)N1C[C@H](Cc2ccc(O)cc2)NC1=N [1968-38]	4270	3800	3800	3330	174	195	184	184	1690	1960	1820	1820
